Assay results reported in patent US6331548A, “1-cycloalkyl-1,8-naphthyridin-4-one derivative as type IV phosphodiesterase inhibitor” (Suntory Limited, priority 1998, dated 2001).
Structures can show the parent of a compound that is named as a salt.

Molecular target: type IV phosphodiesterase
Assay: Type IV phosphodiesterase inhibiting activity
Type: biochemical, human
Conditions: U937 type IV phosphodiesterase fraction, 0.28 μM cAMP, pH 7.5, 30° C., 30 minutes; read-out: PDEIV-IC50
Experimental: The following assay was used to evaluate the ability of the compound of the present invention to suppress type IV phosphodiesterase, according to Biochemical. Pharmacol. 48 (6), 1219-1223 (1994).
1) Type IV phosphodiesterase activity fractions were prepared as follows. Namely, human histiocytic lymphoma cell line U937 was cultured in an RPMI1640 medium containing 10% fetal calf serum to obtain 10^9 cells of U937. The cells were recovered by centrifugation and suspended in 40 ml of buffer A (20 mM bis-tris, 5 mM 2-mercaptoethanol, 2 mM benzamidine, 2 mM EDTA, 0.1 mM 4-(2-aminoethyl)benzensulfonyl hydrochloride, 50 mM sodium acetate, pH=6.5). The cells were broken by a sonication and centrifuged (4° C., 10,000 G, 10 minutes) to obtain a supernatant. This was filtered by a 0.45 μm filter to obtain the soluble fraction.
2) The soluble fraction obtained was applied into a 1×10 cm DEAE Sepharose column equalibrated with the buffer A. 120 ml of the buffer A containing a linear gradient solution of 0.05 to 1M sodium acetate was used to separate the phosphodiesterase and recover 24 5-ml fractions. Each of the fractions was measured for the cAMP phosphodiesterase activity.
3) The test compound was reacted at a desired concentration in a reaction mixture containing 20 mM tris-HCl (pH 7.5), 1 mM MgCl2, 100 μM EDTA, 330 μg/ml calf serum albumin, 10 μg/ml 5'-nucleotidase, 0.4 μCi ^3 H-cAMP (0.28 μM cAMP) and the type IV phosphodiesterase stored solution at 30° C. for 30 minutes. QAE-Sephadex suspended in 10 mM of hepes-Na (pH -7.0) was added to the reaction mixture which was then allowed to stand for 5 minutes, then the supernatant was obtained, QAE-Sephadex was further added, to the supernatant, and was allowed to stand for 5 minutes, then the supernatant was obtained and measured for radioactivity.

| IC50 | SMILES |
| --- | --- |
| 0.3 nM | O=C(Nc1c(Cl)cncc1Cl)c1cn(C2CCCC2)c2ncccc2c1=O [Example 150, N-(3,5-dichloropyridin-4-yl)-1-cyclopentyl-1,4-dihydro[1,8]naphthylidin-4-one-3-carboxamide] |
| 7.3 nM | CN1CCN(Cc2ccc(C(=O)O[C@H]3CC[C@H](n4cc(C(=O)Nc5c(Cl)cncc5Cl)c(=O)c5cccnc54)CC3)cc2)CC1 [Example 133, trans-4-[3-{[(3,5-dichloro-4-pyridinyl)amino]carbonyl}-4-oxo[1,8]naphthylidin-1(4H)-yl]cyclohexyl 4-[(4-methylpiperazino)methyl]benzoate dihydrochloride] |
| 0.5 nM | CCNC(=O)N[C@H]1CC[C@H](n2cc(C(=O)Nc3c(Cl)cncc3Cl)c(=O)c3cccnc32)CC1 [Example 71, N-(3,5-dichloropyridin-4-yl)-1-[trans-4-(ethylaminocarbonylamino)cyclohexyl]-1,4-dihydro[1,8]naphthylidin-4-one-3-carboxamide] |
| 6 nM | O=C(O[C@H]1CC[C@H](n2cc(C(=O)Nc3c(Cl)cncc3Cl)c(=O)c3cccnc32)CC1)c1cccc(CN2CCOCC2)c1 [Example 162, trans-4-[3-{[(3,5-dichloro-4-pyridinyl)amino]carbonyl}-4-oxo[1,8]naphthylidin-1(4H)-yl]cyclohexyl 3-(morpholinomethyl)benzoate hydrochloride] |
| 9.3 nM | CCC(=O)O[C@H]1CC[C@H](n2cc(C(=O)Nc3c(Cl)cncc3Cl)c(=O)c3cccnc32)CC1 [Example 129, trans-4-[3-{[(3,5-dichloro-4-pyridinyl)amino]carbonyl}-4-oxo[1,8]naphthylidin-1(4H)-yl]cyclohexylpropionate] |
| 1.2 nM | O=C(Nc1c(Cl)cncc1Cl)c1cn([C@@H]2CC[C@@H](O)C2)c2ncccc2c1=O [Example 79, N-(3,5-dichloropyridin-4-yl)-1-[(1R,3R)-3-(hydroxy)cyclopentyl]-1,4-dihydro[1,8]naphthylidin-4-one-3-carboxamide] |
| 210 nM | O=C(Nc1ccncc1)c1cn([C@H]2CC[C@@H](O)CC2)c2ncccc2c1=O [Example 115, N-(4-pyridyl)-1-(cis-4-hydroxycyclohexyl)-1,4-dihydro[1,8]naphthylidin-4-one-3-carboxamide] |
| 4 nM | CCN(CC)Cc1ccc(C(=O)O[C@H]2CC[C@H](n3cc(C(=O)Nc4c(Cl)cncc4Cl)c(=O)c4cccnc43)CC2)cc1 [Example 159, trans-4-[3-{[(3,5-dichloro-4-pyridinyl)amino]carbonyl}-4-oxo[1,8]naphthylidin-1(4H)-yl]cyclohexyl 4-(diethylaminomethyl)benzoate hydrochloride] |
| 4500 nM | Cc1noc(NC(=O)c2cn([C@H]3CC[C@H](O)CC3)c3ncccc3c2=O)c1C [Example 180, N-(3,4-dimethylisoxazol-5-yl)-1-(trans-4-hydroxycyclohexyl)-1,4-dihydro[1,8]naphthylidin-4-one-3-carboxamide] |

Second part, the molecule before the results:

| SMILES | IC50 |
| --- | --- |
| Cc1nn(C)c(C)c1NC(=O)c1cn([C@H]2CC[C@H](O)CC2)c2ncccc2c1=O [Example 184, N-(1,3,5-trimethylpyrazol-4-yl)-1-(trans-4-hydroxycyclohexyl)-1,4-dihydro[1,8]naphthylidin-4-one-3-carboxamide] | 2300 nM |
| O=C(Nc1cccnc1)c1cn([C@H]2CC[C@H](O)CC2)c2ncccc2c1=O [Example 172, N-(3-pyridyl)-1-(trans-4-hydroxycyclohexyl)-1,4-dihydro[1,8]naphthylidin-4-one-3-carboxamide] | 360 nM |
| COC(=O)N1CCC(n2cc(C(=O)Nc3c(Cl)cccc3Cl)c(=O)c3cccnc32)C1 (racemic) [Example 4, (±)-N-(2,6-dichlorophenyl)-1-(1-methoxycarbonylpyrrolidin-3-yl)-1,4-dihydro[1,8]naphthyridin-4-one-3-carboxamide] | 60 nM |
| CC1(O)CCC(n2cc(C(=O)Nc3ccncc3)c(=O)c3cccnc32)CC1 (stereo not shown) [Example 194, N-(4-pyridinyl)-1-(4-hydroxy-4-methylcyclohexyl)-1,4-dihydro[1,8]naphthylidin-4-one-3-carboxamide] | 960 nM |
| O=C1CCC(n2cc(C(=O)Nc3ccncc3)c(=O)c3cccnc32)CC1 [Example 61, N-(4-pyridyl)-1-(4-oxocyclohexyl)-1,4-dihydro[1,8]naphthylidin-4-one-3-carboxamide] | 180 nM |
| N[C@H]1CC[C@H](n2cc(C(=O)Nc3c(Cl)cncc3Cl)c(=O)c3cccnc32)CC1 [Example 69, N-(3,5-dichloropyridin-4-yl)-1-(trans-4-aminocyclohexyl)-1,4-dihydro[1,8]naphthylidin-4-one-3-carboxamide acetate] | 210 nM |
| CCOC(=O)N1CCC(n2cc(C(=O)Nc3c(Cl)cncc3Cl)c(=O)c3cccnc32)CC1 [Example 62, N-(3,5-dichloropyridin-4-yl)-1-(1-ethoxycarbonylpiperidin-4-yl)-1,4-dihydro[1,8]naphthylidin-4-one-3-carboxamide] | 2.3 nM |
| Cc1cc(NC(=O)c2cn([C@H]3CC[C@H](O)CC3)c3ncccc3c2=O)sn1 [Example 176, N-(3-methylisothiazol-5-yl)-1-(trans-4-hydroxycyclohexyl)-1,4-dihydro[1,8]naphthylidin-4-one-3-carboxamide] | 920 nM |
| CC1(O)CCC(n2cc(C(=O)Nc3c(Cl)cncc3Cl)c(=O)c3cccnc32)CC1 (stereo not shown) [Example 192, N-(3,5-dichloropyridin-4-yl)-1-(4-hydroxy-4-methylcyclohexyl)-1,4-dihydro[1,8]naphthylidin-4-one-3-carboxamide] | 4.1 nM |
| O=C(NC1CC1)c1cn([C@H]2CC[C@H](O)CC2)c2ncccc2c1=O [Example 170, N-cyclopropyl-1-(trans-4-hydroxycyclohexyl)-1,4-dihydro[1,8]naphthylidin-4-one-3-carboxamide] | 990 nM |
| Cc1cnccc1NC(=O)c1cn(C2CC2)c2ncccc2c1=O [Example 157, N-(3-methylpyridin-4-yl)-1-cyclopropyl-1,4-dihydro[1,8]naphthylidin-4-one-3-carboxamide] | 130 nM |
| CC(C)(C)C(=O)O[C@H]1CC[C@H](n2cc(C(=O)Nc3c(Cl)cncc3Cl)c(=O)c3cccnc32)CC1 [Example 128, trans-4-[3-{[(3,5-dichloro-4-pyridinyl)amino]carbonyl}-4-oxo[1,8]naphthylidin-1(4H)-yl]cyclohexylpivalate] | 5.7 nM |
| O=C(NC1CCC1)c1cn([C@H]2CC[C@H](O)CC2)c2ncccc2c1=O [Example 164] | 400 nM |
| O=C(Nc1ccncc1)c1cn(C2CCC2)c2ncccc2c1=O [Example 144, N-(4-pyridyl)-1-cyclobutyl-1,4-dihydro[1,8]naphthylidin-4-one-3-carboxamide] | 120 nM |
| O=C(Nc1ccncc1)c1cn([C@@H]2CCOC2)c2ncccc2c1=O [Example 38, N-(4-pyridyl)-1-[(R)-tetrahydro-3-furanyl]-1,4-dihydro[1,8]naphthylidin-4-one-3-carboxamide] | 330 nM |
| O=C(O[C@H]1CC[C@H](n2cc(C(=O)Nc3c(Cl)cncc3Cl)c(=O)c3cccnc32)CC1)c1ccccc1 [Example 130, trans-4-[3-{[(3,5-dichloro-4-pyridinyl)amino]carbonyl}-4-oxo[1,8]naphthylidin-1(4H)-yl]cyclohexylbenzoate] | 50 nM |
